According to patent US20220402862A1 (Intellia Therapeutics, Inc., priority 2019, published 2022):

Columns and labels:
[1] = RNA encapsulation efficiency of LNPs (Ribogreen fluorescence assay); format: physicochemical; settings: LNP, sg:mRNA 1:1, N/P about 6, amine lipid/DSPC/cholesterol/PEG-2k-DMG 50/9/38/3; Table 2, Experiments 2-20
In short: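 LNPs were diluted in 1× TE with 0.2% Triton X-100 (total RNA) or without it (free RNA), stained with RiboGreen for ~10 min at room temperature in the dark, and read at Ex 488/Em 525 nm against standard curves of the starting RNA. Encapsulation efficiency = (Total − Free)/Total.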

[2] = Dynamic light scattering of LNPs: Z-average diameter, number average diameter, PDI; format: physicochemical; settings: LNP, sg:mRNA 1:1, N/P about 6, 50/9/38/3; Table 2, Experiments 2-20
In short: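 LNP samples were diluted in PBS and measured by DLS to give intensity-based Z-average diameter, number average diameter and polydispersity index. PDI describes size spread around the mean, with zero meaning a uniform population.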

[3] = pKa measurement of unformulated amine lipid (fluorescence, method of Jayaraman et al.); format: physicochemical; settings: 100 μM in 0.1 M phosphate buffer, pH 2.0-12.0
Experimental: The pKa of each amine lipid was determined according to the method in Jayaraman, et al. (Angewandte Chemie, 2012) with the following adaptations. […] Lipid was diluted to 100 μM in 0.1 M phosphate buffer (Boston Bioproducts) where the pH ranged from 2.0-12.0. Fluorescence intensity was measured using excitation and emission wavelengths of 321 nm and 448 nm.

[4] = test system: Transthyretin (TTR); assay: Serum TTR ELISA in mice after LNP dosing; format: in vivo, CD-1 female mice; settings: guide G282 experiments; for Serum TTR % TSS: mouse serum TTR relative to TSS control; for Serum TTR: mouse serum, ELISA
In short: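 Female CD-1 mice, 6–10 weeks, given LNPs by tail-vein injection (~10 mL/kg), 0.1 mg/kg unless noted; serum taken at day 6 or 7 by cardiac puncture. Total mouse TTR by ELISA on sera diluted 10,000-fold (0.1 mg/kg) or 10,000- and 2,500-fold (0.3 mg/kg).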

| SMILES | Encapsulation (%) [1] [%] | Number mean (nm) [2] [nm] | PDI [2] | Z-avg (nm) [2] [nm] | pKa [3] | Serum TTR % TSS [4] [%] | Serum TTR [4] [µg/mL] |
| --- | --- | --- | --- | --- | --- | --- | --- |
| CCCCCC/C=C\COC(=O)CCCC(=O)OCC(COC(=O)CCC(OCCCCCCCC)OCCCCCCCC)COC(=O)OCCCN(CC)CC (stereo not shown) [Compound 56, (Z)-3-((4,4-bis(octyloxy)butanoyl)oxy)-2-((((3-(diethylamino)propoxy)carbonyl)oxy)methyl)propyl non-2-en-1-yl glutarate] | 96 | 81.44 | 0.067 | 105.2 | 6.85 | 66 | 576 |
| CCCCC/C=C\C/C=C\CCCCCCCC(=O)OCC(COC(=O)CCC(OCCCCCCCC)OCCCCCCCC)COC(=O)NCC1CCCCN1CC (stereo not shown) [Compound 38, 3-((4,4-bis(octyloxy)butanoyl)oxy)-2-(((((1-ethylpiperidin-2-yl)methyl)carbamoyl)oxy)methyl)propyl (9Z,12Z)-octadeca-9,12-dienoate] | 96 | 74.58 | 0.019 | 91.5 | 7.17 | 60 | 481 |
| CCCCCCCCCCOC(=O)CCCCCCCC(=O)OCC(COC(=O)CCC(OCCCCCCCC)OCCCCCCCC)COC(=O)OCC1CCCN(C)C1 (stereo not shown) [Compound 71, 1-(3-((4,4-bis(octyloxy)butanoyl)oxy)-2-(((((1-methylpiperidin-3-yl)methoxy)carbonyl)oxy)methyl)propyl) 9-decyl nonanedioate] | 99 | 76.95 | 0.035 | 95.57 | 6.44 | 50 | 462 |
| CCCCC/C=C\C/C=C\CCCCCCCC(=O)OCC(COC(=O)CCC(OCCCCCCCC)OCCCCCCCC)COC(=O)N1CCN(CC)CC1 (stereo not shown) [Compound 48, 3-((4,4-bis(octyloxy)butanoyl)oxy)-2-((((9Z,12Z)-octadeca-9,12-dienoyl)oxy)methyl)propyl 4-ethylpiperazine-1-carboxylate] | 97 | 45.32 | 0.085 | 64.68 | 5.3 | 82 | 915 |
| CCCCC/C=C\C/C=C\CCCCCCCC(=O)OCC(COC(=O)CCC(OCCCCCCCC)OCCCCCCCC)COC(=O)NC(C)CN(CC)CC (stereo not shown) [Compound 44, 3-((4,4-bis(octyloxy)butanoyl)oxy)-2-((((1-(diethylamino)propan-2-yl)carbamoyl)oxy)methyl)propyl (9Z,12Z)-octadeca-9,12-dienoate] | 91 | 64.78 | 0.025 | 81.19 | 6.1 | 82 | 910 |
| CCCCC/C=C\C/C=C\CCCCCCCC(=O)OCC(COC(=O)CCC(OCCCCCCCC)OCCCCCCCC)COC(=O)NC1CCN(CC)C1 (stereo not shown) [Compound 41, 3-((4,4-bis(octyloxy)butanoyl)oxy)-2-((((1-ethylpyrrolidin-3-yl)carbamoyl)oxy)methyl)propyl (9Z,12Z)-octadeca-9,12-dienoate] | 98 | 54.1 | 0.074 | 74.83 | 7.82 | 95 | 758 |
| CCCCCCCCCCOC(=O)CCCCCCCC(=O)OCC(COC(=O)CCC(OCCCCCCCC)OCCCCCCCC)COC(=O)OCCC1CCCN1C (stereo not shown) [Compound 74, 1-(3-((4,4-bis(octyloxy)butanoyl)oxy)-2-((((2-(1-methylpyrrolidin-2-yl)ethoxy)carbonyl)oxy)methyl)propyl) 9-decyl nonanedioate] | 99 | 87.14 | 0.021 | 105.7 | 6.39 | 44 | 406 |
| CCCCCCCCCCOC(=O)CCCCCCCC(=O)OCC(COC(=O)CCC(OCCCCCCCC)OCCCCCCCC)COC(=O)NCCN(CC)CC (stereo not shown) [Compound 73, 1-(3-((4,4-bis(octyloxy)butanoyl)oxy)-2-((((2-(diethylamino)ethyl)carbamoyl)oxy)methyl)propyl) 9-decyl nonanedioate] | 97 | 94.5 | 0.008 | 110.6 | 6.64 | 60 | 550 |
| CCCCC/C=C\C/C=C\CCCCCCCC(=O)OCC(COC(=O)CCC(OCCCCCCCC)OCCCCCCCC)COC(=O)NC1CCN(CC)CC1 (stereo not shown) [Compound 37, 3-((4,4-bis(octyloxy)butanoyl)oxy)-2-((((1-ethylpiperidin-4-yl)carbamoyl)oxy)methyl)propyl (9Z,12Z)-octadeca-9,12-dienoate] | 100 | 44.73 | 0.091 | 65.01 | 7.84 | 77 | 617 |
| CCCCC/C=C\C/C=C\CCCCCCCC(=O)OCC(COC(=O)CCC(OCCCCCCCC)OCCCCCCCC)COC(=O)OCC1(C)CCCN(CC)C1 (stereo not shown) [Compound 52, 3-((4,4-bis(octyloxy)butanoyl)oxy)-2-(((((1-ethyl-3-methylpiperidin-3-yl)methoxy)carbonyl)oxy)methyl)propyl (9Z,12Z)-octadeca-9,12-dienoate] | 99 | 69.4 | 0.032 | 86.72 | 7.8 | 84 | 935 |

Second part, led by results:

| Encapsulation (%) [1] [%] | Number mean (nm) [2] [nm] | PDI [2] | Z-avg (nm) [2] [nm] | pKa [3] | SMILES | Serum TTR % TSS [4] [%] | Serum TTR [4] [µg/mL] |
| --- | --- | --- | --- | --- | --- | --- | --- |
| 99 | 81.15 | 0.017 | 99.62 | 6.14 | CCCCCCCCCCOC(=O)CCCCCCCCCC(=O)OCC(COC(=O)CCC(OCCCCCCCC)OCCCCCCCC)COC(=O)OCCCN(CC)CC (stereo not shown) [Compound 90, 1-(3-((4,4-bis(octyloxy)butanoyl)oxy)-2-((((3-(diethylamino)propoxy)carbonyl)oxy)methyl)propyl) 11-decyl undecanedioate] | 67 | 504 |
| 99 | 80.2 | 0.097 | 111.8 | 6.17 | CCCCCCCCCCOC(=O)CCCCCCCC(=O)OCC(COC(=O)CCCCCC(=O)OC(CCCCCCCC)CCCCCCCC)COC(=O)OCCCN(CC)CC (stereo not shown) [Compound 76, 1-decyl 9-(3-(((3-(diethylamino)propoxy)carbonyl)oxy)-2-(((7-(heptadecan-9-yloxy)-7-oxoheptanoyl)oxy)methyl)propyl) nonanedioate] | 81 | 735 |
| 98 | 81.57 | 0.006 | 98.47 | 6.52 | CCCCCCCCCCOC(=O)CCCCCCCC(=O)OCC(COC(=O)CCCC(=O)OC(CCCCCCCC)CCCCCCCC)COC(=O)OCCC1CCCN1C (stereo not shown) [Compound 87, 1-decyl 9-(3-((5-(heptadecan-9-yloxy)-5-oxopentanoyl)oxy)-2-((((2-(1-methylpyrrolidin-2-yl)ethoxy)carbonyl)oxy)methyl)propyl) nonanedioate] | 68 | 511 |
| 98 | 94.01 | 0.038 | 117.5 | 6.31 | CCCCCCCCCCOC(=O)CCCCCCCC(=O)OCC(COC(=O)CCCCCC(=O)OC(CCCCCCCC)CCCCCCCC)COC(=O)CCCN(C)C (stereo not shown) [Compound 82, 1-decyl 9-(3-((4-(dimethylamino)butanoyl)oxy)-2-(((7-(heptadecan-9-yloxy)-7-oxoheptanoyl)oxy)methyl)propyl) nonanedioate] | 126 | 953 |
| 98 | 92.74 | 0.020 | 110.9 | 6.45 | CCCCCCCCCCOC(=O)CCCCCCCC(=O)OCC(COC(=O)CCCN(CC)CC)COC(=O)CCC(OCCCCCCCC)OCCCCCCCC (stereo not shown) [Compound 75, 1-(3-((4,4-bis(octyloxy)butanoyl)oxy)-2-(((4-(diethylamino)butanoyl)oxy)methyl)propyl) 9-decyl nonanedioate] | 68 | 623 |
| 95 | 89.4 | 0.008 | 107.3 | 6.79 | CCCCCCCCCCOC(=O)CCCCCCCC(=O)OCC(COC(=O)CCCC(=O)OC(CCCCCCCC)CCCCCCCC)COC(=O)CCCN(C)C (stereo not shown) [Compound 89, 1-decyl 9-(3-((4-(dimethylamino)butanoyl)oxy)-2-(((5-(heptadecan-9-yloxy)-5-oxopentanoyl)oxy)methyl)propyl) nonanedioate] | 102 | 774 |
